Results on one compound are retold here after patent publication US5595760A, “Sustained release of peptides from pharmaceutical compositions” (Delab, priority 1995, dated 1997).

The nature of series [1]: In vivo blood level release profile in dogs (plasma RIA). To be noted: gels at sufficient dosages. The arrangement: species or system dog. The protocol: Once a particular peptide salt is found to gel in any of the in vitro assays described above, an in vivo assay can be used to determine the suitability of that peptide salt for therapeutic use in animals or humans. A blood level release profile for a particular peptide salt can be determined by injecting the peptide salt into an animal, e.g., a Sprague Dawley rat or dog, and testing blood samples taken at specific time intervals, e.g., hourly intervals over 1 to 5 days, or 12 or 24 hour intervals over 5 to 45 days, for the concentration of the peptide. The suitability of a particular peptide gel, or a peptide/carrier gel, for therapeutic delivery of the peptide can thus be determined.
Specifically, animals are anaesthetized with pentobarbital (60 mg/kg i.p. for rats), and a jugular vein is cannulated for blood sampling. A test peptide semisolid suspension or solid composition (or standard solution for comparison purposes), e.g., of SOMATULINE™, is injected subcutaneously at a specific dosage, e.g., 1.0, 3.0, or 6.0 mg/kg of SOMATULINE™. […] The amount of peptide in the plasma samples is determined by a standard radioimmunoassay (RIA) technique that allows a direct measurement without extraction of the peptide from the rat plasma. […]

A short description of series [2]: Solubility of the peptide salt in water. The class given is physicochemical. To be noted: pH 7.0, 25° C. The source says:
As used herein, a "gelable peptide salt" is a peptide salt which will form a gel upon contact with bodily fluids. Whether a peptide salt is "gelable," and will have the desired biological properties, can be determined by testing the peptide salt in the in vitro and in vivo assays described below. The term "peptide" means a natural or synthetic molecule comprising two or more amino acids linked by the carboxyl group of one amino acid and the amino group of another. Thus, the term includes both polypeptides and proteins. A "soluble" peptide salt is one having a solubility of 0.1 mg/ml, and preferably 1.0 mg/ml, in water at a pH of 7.0 and a temperature of 25° C.
A solution of the peptide composition is undesirable, because such a solution, once injected, will disperse and not form the sustained-release gel of the invention. Thus, the amount of water is carefully selected to be less than that required to dissolve a specific amount of the peptide composition For example, at 25° C., pH 7.0, 1.0 ml or less of water is required when mixed with 26 mg of the acetate salt of SOMATULINE™ to avoid the formation of a solution. By using an amount of water that is less than 50 percent, and preferably less than 20 or 10 percent, of the amount of water required to dissolve a peptide salt, a semisolid or paste-like suspension, rather than a solution, is ensured.

By solubility is commonly meant the dissolved amount per volume that the medium holds. On to `CC(C)[C@@H]1NC(=O)[C@H](CCCCN)NC(=O)[C@@H](Cc2c[nH]c3ccccc23)NC(=O)[C@H](Cc2ccc(O)cc2)NC(=O)[C@@H](NC(=O)[C@H](N)Cc2ccc3ccccc3c2)CSSC[C@@H](C(=O)N[C@H](C(N)=O)[C@@H](C)O)NC1=O` [SOMATULINE™], for which the “duration of sustained release of at least 1.0 ng/ml of the peptide in the blood” value in series [1] is on record as “over one month”. Moreover, in series [2], the solubility worked out at 26.0 mg/mL.
